Earlier results as cited in patent publication US10328040B2, “Therapeutic methods” (ARIZONA BOARD OF REGENTS ON BEHALF OF ARIZONA STATE …, priority 2014, dated 2019).

Key:
[1] = system: rat model of Parkinson's disease; conditions: low dose
[2] = biological target: hRXRβ (Homo sapiens, UniProt P28702); conditions: read-out: EC50 for the hRXRβ isoform
[3] = system: hRXR; conditions: Caco-2 cells
[4] = biological target: hRXR; conditions: Caco-2 cells; remark: listed apart in the source
[5] = system: RXR β; conditions: CV-1 cell line; read-out: EC50 for RXR β subtype
[6] = system: RXR γ; conditions: CV-1 cell line; read-out: EC50 for RXR γ subtype

Chain of hRXRβ (P28702 whole entry, canonical isoform): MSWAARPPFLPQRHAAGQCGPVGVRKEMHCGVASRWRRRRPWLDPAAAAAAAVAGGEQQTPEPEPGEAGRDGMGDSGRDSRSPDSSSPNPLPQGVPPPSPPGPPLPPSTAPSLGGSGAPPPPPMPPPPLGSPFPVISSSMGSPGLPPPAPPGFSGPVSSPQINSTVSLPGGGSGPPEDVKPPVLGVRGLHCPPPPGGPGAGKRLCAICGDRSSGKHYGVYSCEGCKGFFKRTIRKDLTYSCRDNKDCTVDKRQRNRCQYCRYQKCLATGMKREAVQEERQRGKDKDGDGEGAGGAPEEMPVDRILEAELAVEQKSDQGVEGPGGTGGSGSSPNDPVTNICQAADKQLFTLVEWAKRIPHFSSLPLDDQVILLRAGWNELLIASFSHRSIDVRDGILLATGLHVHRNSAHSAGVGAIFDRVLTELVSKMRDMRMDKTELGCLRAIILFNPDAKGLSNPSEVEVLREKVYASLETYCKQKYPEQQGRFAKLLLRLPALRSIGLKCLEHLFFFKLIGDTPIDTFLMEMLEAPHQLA

## C=C(c1ccc(C(=O)O)cc1)c1cc2c(cc1C)C(C)(C)CCC2(C)C [Bexarotene]
[1]
  PD symptoms: marked improvement in the PD symptoms
[1]; rat model of PD
  dopamine cells and natural behavior: restored dopamine cells and natural behavior

## Cc1cc2c(cc1-c1cc(/C=C/C(=O)O)ccc1O)C(C)(C)CCC2(C)C [CD3254, (E)-3-(3-(1,2,3,4-tetrahydro-1,1,4,4,6-pentamethylnaphthylen-7-yl)-4-hydroxyphenyl)acrylic Acid]
[2]
  EC50: ~10 nM

## C=C(c1ccc(C(=O)O)c(F)c1)c1cc2c(cc1C)C(C)(C)CCC2(C)C [Compound 3]
[3]
  EC50: 43 nM
[4]
  Kd: 12 nM

## Cc1cc2c(cc1C1(c3ccc(C(=O)O)cn3)CC1)C(C)(C)CCC2(C)C [LGD100268]
[5]
  EC50: […]
[6]
  EC50: […]
